Results as given in PubChem BioAssay (NCI).
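Growth conditions: 96-well plates. Treatment: test compound, 48 hours, 5 concentrations. Analysis: linear interpolation between bracketing concentrations; unreached endpoints set to highest concentration. Abbreviation: GI50, concentration required for 50% inhibition of growth. TGI denotes the concentration required for complete inhibition of growth.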

Key:
Assay in all cases: NCI-60 cell line screen, 48 h
RPMI-8226 leukemia = system: RPMI-8226 leukemia
T-47D breast = system: T-47D breast
SR leukemia = system: SR leukemia
SN12C renal = system: SN12C renal
HCT-116 colon = system: HCT-116 colon
PC-3 prostate = system: PC-3 prostate
SK-MEL-2 melanoma = system: SK-MEL-2 melanoma
NCI-H23 lung = system: NCI-H23 lung
HCT-15 colon = system: HCT-15 colon
CAKI-1 renal = system: CAKI-1 renal
UO-31 renal = system: UO-31 renal
IGROV1 ovarian = system: IGROV1 ovarian
CCRF-CEM leukemia = system: CCRF-CEM leukemia
A549 NSCLC = system: A549 NSCLC
MDA-MB-231 breast = system: MDA-MB-231 breast
NCI/ADR-RES ovarian = system: NCI/ADR-RES ovarian
M14 melanoma = system: M14 melanoma
SF-268 CNS = system: SF-268 CNS
786-0 renal = system: 786-0 renal
OVCAR-3 ovarian = system: OVCAR-3 ovarian
HS 578T breast = system: HS 578T breast
HCC-2998 colon = system: HCC-2998 colon
KM12 colon = system: KM12 colon
UACC-257 melanoma = system: UACC-257 melanoma
SK-MEL-5 melanoma = system: SK-MEL-5 melanoma
K-562 leukemia = system: K-562 leukemia
MCF7 breast = system: MCF7 breast
BT-549 breast = system: BT-549 breast
OVCAR-4 ovarian = system: OVCAR-4 ovarian
SK-OV-3 ovarian = system: SK-OV-3 ovarian
NCI-H460 lung = system: NCI-H460 lung
SK-MEL-28 melanoma = system: SK-MEL-28 melanoma
DU-145 prostate = system: DU-145 prostate
UACC-62 melanoma = system: UACC-62 melanoma
SF-539 CNS = system: SF-539 CNS
MALME-3M melanoma = system: MALME-3M melanoma
SNB-75 CNS = system: SNB-75 CNS
NCI-H522 lung = system: NCI-H522 lung
LOX IMVI melanoma = system: LOX IMVI melanoma
HOP-92 NSCLC = system: HOP-92 NSCLC
NCI-H226 lung = system: NCI-H226 lung
EKVX NSCLC = system: EKVX NSCLC
OVCAR-5 ovarian = system: OVCAR-5 ovarian
A498 renal = system: A498 renal
HT29 colon = system: HT29 colon
HL-60(TB) leukemia = system: HL-60(TB) leukemia
OVCAR-8 ovarian = system: OVCAR-8 ovarian
MOLT-4 leukemia = system: MOLT-4 leukemia
RXF 393 renal = system: RXF 393 renal
TK-10 renal = system: TK-10 renal
SNB-19 CNS = system: SNB-19 CNS
ACHN renal = system: ACHN renal
SF-295 CNS = system: SF-295 CNS
SW-620 colon = system: SW-620 colon
MDA-MB-435 = system: MDA-MB-435

Molecule `CCCCCC/C=C\CCCCCCCCCc1cc(O)cc(OC)c1O` has a GI50 (RPMI-8226 leukemia) of 0.219 µM, a GI50 (T-47D breast) of 0.349 µM and a TGI (T-47D breast) of 1.93 µM. It also gave a GI50 (SR leukemia) of 0.344 µM, a TGI (SR leukemia) of 3.26 µM and a GI50 (SN12C renal) of 0.31 µM. For the same molecule, the TGI (SN12C renal) was 1.5 µM, the GI50 (HCT-116 colon) was 0.33 µM and the TGI (HCT-116 colon) was 1.25 µM. For the same molecule, the GI50 (PC-3 prostate) was 0.308 µM, the TGI (PC-3 prostate) was 1.54 µM and the GI50 (SK-MEL-2 melanoma) was 0.494 µM. It also gave a TGI (SK-MEL-2 melanoma) of 2.41 µM, a GI50 (NCI-H23 lung) of 0.348 µM and a TGI (NCI-H23 lung) of 1.29 µM. For the same molecule, the GI50 (HCT-15 colon) was 0.285 µM, the TGI (HCT-15 colon) was 1.32 µM and the GI50 (CAKI-1 renal) was 0.497 µM. For the same molecule, the TGI (CAKI-1 renal) was 1.82 µM, the GI50 (UO-31 renal) was 0.321 µM and the TGI (UO-31 renal) was 1.22 µM. The GI50 (IGROV1 ovarian) was 0.433 µM, the TGI (IGROV1 ovarian) was 1.64 µM and the GI50 (CCRF-CEM leukemia) was 0.219 µM. It also gave a TGI (CCRF-CEM leukemia) of 1.29 µM, a GI50 (A549 NSCLC) of 0.406 µM and a TGI (A549 NSCLC) of 14.6 µM. The GI50 (MDA-MB-231 breast) was 0.308 µM, the TGI (MDA-MB-231 breast) was 0.978 µM and the GI50 (NCI/ADR-RES ovarian) was 0.311 µM. The TGI (NCI/ADR-RES ovarian) was 1.27 µM, the GI50 (M14 melanoma) was 0.403 µM and the TGI (M14 melanoma) was 3.65 µM. It also gave a GI50 (SF-268 CNS) of 0.441 µM, a TGI (SF-268 CNS) of 1.69 µM and a GI50 (786-0 renal) of 0.316 µM. It also gave a TGI (786-0 renal) of 1.57 µM, a GI50 (OVCAR-3 ovarian) of 0.401 µM and a TGI (OVCAR-3 ovarian) of 1.43 µM. For the same molecule, the GI50 (HS 578T breast) was 0.599 µM, the TGI (HS 578T breast) was 5.18 µM and the GI50 (HCC-2998 colon) was 0.633 µM. For the same molecule, the TGI (HCC-2998 colon) was 4.34 µM, the GI50 (KM12 colon) was 0.388 µM and the TGI (KM12 colon) was 2.3 µM. It also gave a GI50 (UACC-257 melanoma) of 0.474 µM, a TGI (UACC-257 melanoma) of 2.92 µM and a GI50 (SK-MEL-5 melanoma) of 0.329 µM. For the same molecule, the TGI (SK-MEL-5 melanoma) was 1.18 µM, the GI50 (K-562 leukemia) was 0.298 µM and the TGI (K-562 leukemia) was 2.08 µM. For the same molecule, the GI50 (MCF7 breast) was 0.292 µM, the TGI (MCF7 breast) was 2.49 µM and the GI50 (BT-549 breast) was 0.375 µM. The TGI (BT-549 breast) was 1.45 µM, the GI50 (OVCAR-4 ovarian) was 0.389 µM and the TGI (OVCAR-4 ovarian) was 1.69 µM. The GI50 (SK-OV-3 ovarian) was 0.402 µM, the TGI (SK-OV-3 ovarian) was 11.6 µM and the GI50 (NCI-H460 lung) was 0.323 µM. For the same molecule, the TGI (NCI-H460 lung) was 10.1 µM, the GI50 (SK-MEL-28 melanoma) was 0.653 µM and the TGI (SK-MEL-28 melanoma) was 2.34 µM. It also gave a GI50 (DU-145 prostate) of 0.575 µM, a TGI (DU-145 prostate) of 15.2 µM and a GI50 (UACC-62 melanoma) of 0.396 µM. For the same molecule, the TGI (UACC-62 melanoma) was 1.95 µM, the GI50 (SF-539 CNS) was 0.377 µM and the TGI (SF-539 CNS) was 1.51 µM. The GI50 (MALME-3M melanoma) was 0.444 µM, the TGI (MALME-3M melanoma) was 2.14 µM and the GI50 (SNB-75 CNS) was 0.317 µM. For the same molecule, the TGI (SNB-75 CNS) was 1.44 µM, the GI50 (NCI-H522 lung) was 0.321 µM and the TGI (NCI-H522 lung) was 1.22 µM. The GI50 (LOX IMVI melanoma) was 0.339 µM, the TGI (LOX IMVI melanoma) was 1.21 µM and the GI50 (HOP-92 NSCLC) was 0.234 µM. For the same molecule, the TGI (HOP-92 NSCLC) was 0.767 µM, the GI50 (NCI-H226 lung) was 0.37 µM and the TGI (NCI-H226 lung) was 1.49 µM. For the same molecule, the GI50 (EKVX NSCLC) was 0.335 µM, the TGI (EKVX NSCLC) was 1.74 µM and the GI50 (OVCAR-5 ovarian) was 0.402 µM. The TGI (OVCAR-5 ovarian) was 2.41 µM, the GI50 (A498 renal) was 0.33 µM and the TGI (A498 renal) was 2.07 µM. The GI50 (HT29 colon) was 0.353 µM, the TGI (HT29 colon) was 6.93 µM and the GI50 (HL-60(TB) leukemia) was 0.272 µM. It also gave a TGI (HL-60(TB) leukemia) of 0.717 µM, a GI50 (OVCAR-8 ovarian) of 0.307 µM and a TGI (OVCAR-8 ovarian) of 6.5 µM. For the same molecule, the GI50 (MOLT-4 leukemia) was 0.333 µM, the TGI (MOLT-4 leukemia) was 1.86 µM and the GI50 (RXF 393 renal) was 0.32 µM. For the same molecule, the TGI (RXF 393 renal) was 1.38 µM, the GI50 (TK-10 renal) was 0.664 µM and the TGI (TK-10 renal) was 2.65 µM. It also gave a GI50 (SNB-19 CNS) of 0.347 µM, a TGI (SNB-19 CNS) of 10.3 µM and a GI50 (ACHN renal) of 0.318 µM. For the same molecule, the TGI (ACHN renal) was 1.21 µM, the GI50 (SF-295 CNS) was 0.304 µM and the TGI (SF-295 CNS) was 1.37 µM. It also gave a GI50 (SW-620 colon) of 0.371 µM, a TGI (SW-620 colon) of 1.81 µM and a GI50 (MDA-MB-435) of 0.363 µM. The TGI (MDA-MB-435) was 1.96 µM.
